Experimental data from US20130345164A1, “TREATMENTS FOR CELLULAR PROLIFERATIVE DISORDERS AND IDENTIFICATION THEREOF” (UNIVERSITY OF MEDICINE AND DENTISTRY OF NEW JERSEY, priority 2010, published 2013).

Legend:
[1] = system: MEF cells with exogenous p53 mutations; assay: Apoptosis by Annexin V staining in MEF cells; assay type: cell-based, mouse
Text: (§1) Briefly, apoptosis was examined by Annexin V staining using standard methods.

p53^R175H mutant protein = molecular target: T1, p53^R175H mutant protein (Homo sapiens, UniProt P04637, R175H); assay: Immuno-fluorescent staining with conformation-specific antibodies (PAB1620, PAB240, PAB1801) in TOV112D; assay type: cell-based
T1 construct: one ovarian carcinoma cell line containing a p53^R175H (TOV112D); endogenous in cells; host or cells: TOV112D human ovarian carcinoma cells
Text: Conformational change to wild type in TOV112D (p53R175H) was studied by immuno-fluorescent staining.

MEF-p53^R172H cells = assay: Viability assay in 12-well cultures (Guava PCA) in MEF lines of the same strain; assay type: cell-based, mouse; settings: MEF-p53^R172H vs MEF-p53 wild type and MEF-p53 null
Experimental: The sensitivity was measured in 12-well cultures for viability assay using the Guava PCA instrument following the manufacture protocol.

[2] = system: p53 response element (p53RE) in the p21 promoter, MEF cells with exogenous 248 or 273 mutations; assay: Luciferase reporter assay, p53RE of the p21 promoter; assay type: cell-based, mouse; settings: MEF cell lines expressing the 248 and 273 alleles
Experimental: (§2) To that end, luciferase activity assays were performed. Briefly, a 20-bp p53 response element (p53RE) was subcloned in the pGL3 vector to generate a luciferase reporter plasmid, which contained 20 base pairs of the p53 response element in the p21 promoter. The sequences of the 5′ site and 3′ site at −2.27 kb and −1.38 kb (SEQ ID NOs: 1 and 3) and their reverse complements (SEQ ID NOs: 2 and 4) are listed below:
(§3) The reporter plasmid was transfected to the TOV112D cells or MEF cells with exogenous 248 or 273 mutations. Cells thus-transfected were treated with NSC319726 and subjected to luciferase assays. […] This effect was not seen in MEF cell lines expressing the 248 and 273 alleles, FIG. 10b.

[3] = system: p53 wild type cell lines (H460, HCT116, MCF7 and WI38); assay: Sensitivity of human tumor cell line system; assay type: cell-based; settings: 0.1 μM to 10 μM
[4] = system: p53 response element (p53RE) in the p21 promoter, TOV112D cells; assay: Luciferase reporter assay, p53RE of the p21 promoter; assay type: cell-based, human
Experimental: as §2, §3

[5] = system: cells carrying p53 mutations; assay: NCI60 screen Score ranking, p53 mutant case group vs p53 wild-type control group; settings: p53 273/248 mutant case group vs p53 wild-type control group; NCI60 data
Experimental: The Score calculations are carried out by: • (1) calculating a Responsive Fraction, i.e., the fraction of the case cell lines in the Case Group that are responsive to the test treatment; • (2) calculating a Non-Responsive Fraction i.e., the fraction of the control cell lines in the Control Group that are not responsive to the test treatment; and • (3) generating a Score of the test treatment according to Formula I:
Score=the Responsive Fraction×the Non-Responsive Fraction.
Among the NCI60 cell lines, 16 have wild-type p53 and 44 carry a p53 alteration (Ikediobi, O. N., et al., Mol Cancer Ther, 2006. 5(11): p. 2606-12). Mutations at amino acids 273 and 248 are the most frequent, with 5 and 4 cell lines, respectively. Given the abundance of p53 mutations at positions 273 and 248 within the NCI60 cell lines, and their location in the p53-DNA contact, cells carrying these mutations were chosen to form a case group to identify compounds with increased activity in tumors with a mutant p53. On the other hand, cells with a wild-type p53 were chosen to form a control group. The resulting groups are the following:
• Leukemia: CCRF-CEM; • Lung Cancer: NCI-H322M; • Central Nervous System Cancer: SF-295, SF-268, SNB-19, and U251; • Colorectal Cancer: HT29 and SW-620; • Ovarian Cancer: OVCAR-3.
• Breast Cancer: MCF7; • Colorectal Cancer: HCT-116; • Lung Cancer: A549, NCI-H226, and NCI-H460; • Leukemia: SR; • Melanoma: LOXIMVI, MALME-3M, SK-MEL-5, UACC-257, and UACC-62; • Ovarian Cancer: OVCAR-5; • Renal Cancer: A498, ACHN, CAKI-1, and UO-31.
Using the protocols described above, the NCI60 treatment-cell line RG was constructed, taking RS=log10IC50-average(log10IC50) as a relative response sensitivity measurement and computing the average(log10IC50) over all the 60 cell lines. The Case and Control groups listed above were chosen, and the score in Formula I was computed for the 47,624 compounds in the NCI60 screen.

[6] = system: p53^R172H/R172H mice tissues; assay: Cleaved Caspase-3 immuno-staining and quantitative-PCR of p53 targets in mouse tissues; assay type: in vivo
[7] = system: TOV112D (p53^R175H) ovarian carcinoma cell line; assay: Sensitivity of human tumor cell line system; assay type: cell-based; settings: 0.1 μM to 10 μM
Text: Five tumor cell lines with endogenous […] mutations were compared, including two cell lines containing R248W mutations and three cell lines with a R273H mutation.

[8] = system: TOV112D-p53R175H, OVCAR3-p53 R248W and SKOV3-p53 null; assay: Apoptosis by Annexin V staining in ovarian carcinoma cell lines; assay type: cell-based, human; settings: three ovarian carcinoma cell lines
Text: as §1

panel of p53 targets = assay: Microarray analysis of p53 target genes in TOV112D cells; assay type: cell-based, human; settings: TOV112D vs untreated controls
Text: Each treatment had three independent repeats (labeled as 1, 2, and 3); (e) Comparison of the p53 expression signatures of 319726 treated cells with that of p53 wild type, p53 null and p53R175H cell lines in response to gamma-irradiation.
To examine the transcriptional activity of the NSC319725 and […]-treated cells on a larger scale, microarrays were used to analyze control- and compound-treated TOV112D cells.

p53 R175H = molecular target: T2, p53 R175H (Homo sapiens, UniProt P04637, R175H); assay: Immunoprecipitation of TOV112D lysates with mutant specific antibody PAB240; assay type: cell-based; settings: detection with DO-1
T2 construct: one ovarian carcinoma cell line containing a p53^R175H (TOV112D); endogenous in cells; host or cells: TOV112D human ovarian carcinoma cells
Text: This conformational change was confirmed by immunoprecipitation of lysates from NSC319726-treated TOV112D cells using the mutant specific antibody PAB240. To that end, cell lysates were precipitated with PAB240 and detected with p53 (DO-1) antibody which recognizes all types of p53 protein conformations.

## C/C(=N\NC(=S)N1CCC1)c1ccccn1 [NSC319726]
[1]; (10)3/175 compared with other MEF lines
  apoptosis response of (10)3/175: strongest apoptosis response
[1]; MEF cells with exogenous p53 mutations
  induction of apoptosis (Annexin V staining): induced apoptosis
p53^R175H mutant protein
  conformational change of p53^R175H (recognised by PAB1620, no longer by PAB240): induced a change in conformation
MEF-p53^R172H cells
  sensitivity compared to p53 wild type and p53 null controls: much higher sensitivity
[2]
  increase in luciferase activity: not seen
[3]
  sensitivity: relative lack of sensitivity
[4]
  increase in luciferase activity: 2.5 fold
[5]
  Score (Formula I): 0.52
[6]; p53^R172H/R172H mice vs wild type controls, 24 hours treatment
  cleaved Caspase-3 immuno-stained cells in spleen and thymus: abundantly more cleaved Caspase-3 immuno-stained cells
[6]; p53^R172H/R172H mice vs wild type, lung, spleen, thymus, small intestine, 24 hours
  mRNA levels of p53 targets in tissues: Elevated mRNA levels
[7]
  sensitivity: marked sensitivity
[8]
  induction of apoptosis (Annexin V staining): induction of apoptosis in all three
Panel of p53 targets
  transcriptional levels of panel of p53 targets (microarray): induced a large proportion of these genes
p53 R175H
  amount of p53 R175H immunoprecipitated by mutant specific antibody PAB240: greatly reduced
